US20260334464A1, “INCREASED PALATABILITY OF INSECTICIDAL INSECT BAITS” (BIO LOGIC CROP SCIENCE S.L., priority 2023, published 2026)

What was measured:
Format in all cases: in vivo
ants = experiment: Example 1 baits with serine, increase in palatability vs control (results not shown); details: serine instead of cycloserine, or combinations
Experimental: (§1) Ants: The tests are conducted in transparent plastic boxes covered on top with a mixture of ethanol and talcum powder (talcol) which prevents ants from fleeing. A drop of bait is placed on a holder, and the holder is placed with 10-30 ants and the behaviour of the ants is observed.
(§2) The number of ants eating bait is counted every minute until 10′ and every 5 minutes until 30′. The boxes with ants are kept with the sample, with a source of humidity and alternative food to observe mortality at 24 hours and 48 hours.
On the other hand (results not shown), when serine is used instead of cycloserine in the bait, an increase in palatability is also observed, although somewhat lower, around 1.5-1.7 times compared to the control, and when serine, cycloserine and phloxine B, or serine and phloxine B are combined, this increase is 1.7-1-8 times compared to the control, with no appreciable differences between these last two combinations.

Periplaneta america = experiment: Test 2A: palatability in terms of grams ingested (Example 2); details: cockroach test of Example 2
Source text: (§3) Cockroaches: The cockroach test protocol, which can be performed at any location with usual temperature and humidity conditions and with field- or insectary-raised cockroaches, consists of collecting cockroaches that are deprived of food for 7 days; on the day of the test, 4 females and 4 males (or the desired number, for individual measurements, only one individual) are placed in boxes in which the bait is placed in a known quantity and the number of visits to the bait is counted every certain time, optionally the quantity ingested every hour or certain minutes is determined by differential weighing. In examples where mortality is considered, the number of individuals turned over per hour (or other defined time) is observed. The bait is removed and replaced with a standard bait-such as pelleted dog food and a water source, such as moistened cotton wool- and daily mortality is monitored for one week.
A similar test was performed with Periplaneta america, Blattella germanica and Blatta orientialis cockroaches, as detailed below for the first species. In this case, it was possible to evaluate the amount of bait ingested per individual, with the formulas of this example corresponding to those of Example 1, but replacing the 20% fructose in all of them by 20% commercial hazelnut cream, so that we have the formulations C.2.1, P.2.1, P.2.2, P.2.3 with that change only.

insects [1] = experiment: Increase in palatability of baits, general statement; details: for effect on palatability of baits (in words): general statement; for comparison of activity of D and L isomers: D-cycloserine, L-cycloserine or mixtures in any ratio
insects [2] = experiment: Insecticidal efficacy / mortality of baits, general statement; details: for time to elimination of the insects (delayed mortality): cycloserine exclusively as active ingredient in bait; for difference in kill or duration between D-, L-cycloserine and mixtures: more detailed trials
Experimental: On the other hand, in addition to the effect of increased palatability, the effect on mortality of compositions containing D-cycloserine, L-cycloserine and DL-cycloserine was investigated.
At this point, we encounter the unexpected situation, not observed in previous trials because it is not usual to determine death within a short time after exposure to the bait (e.g. from a few minutes to a maximum of 24 hours), that baits containing cycloserine exclusively as active ingredient (that is, in a conceptual simplification, water, sugar and cycloserine, or even water with cycloserine), both D-cycloserine and L-cycloserine or their mixtures in any ratio, present delayed mortality, reaching the elimination of the insects they have eaten in up to 7 days.

Lasius niger [3] = experiment: Palatability of imidacloprid ant bait (Example 3); details: 0.01 wt. % imidacloprid in bait
Experimental: as §1, §2
To test the combination effect of cycloserine and/or phloxine with known insecticides used in baits, we used an ant bait-type composition and its equivalents of Example 1, but containing 0.01 wt. % of the insecticide imidacloprid. Serine was also tested in parallel instead of cycloserine.
The bait is offered to them, in boxes containing 10 Lasius niger ants each, for 3 hours, during which time palatability is observed.

cockroach = experiment: Transfer of lethal effect by cannibalism; details: cockroach offered a cycloserine-treated cockroach
Source text: This circumstance, in addition to the use of cycloserine to increase the palatability of the baits, means that cycloserine can be used as an insecticide and also with an infrequent, or even unknown, particularity in pest control, i.e. the treated insects die in extraordinarily (relatively) long times of up to 7 days. This, which in principle may seem a disadvantage, is not so in certain cases, since it allows the ants to have more time to live functionally well, without external signs of intoxication that could warn other ants, and to transmit the bait by tropholaxy to the queen ant (or queen ants of the same anthill, when this is the case) and thus more effectively destroy the anthill. Similarly, the alertness (if any) of conspecifics to a dead cockroach near the bait is suppressed. […] Similarly, for long-term pest control, immediacy is not an insurmountable requirement, so it is also applicable in mosquito control to prevent disease transmission or pest control in agriculture.

Lasius niger [4] = experiment: Insecticidal efficacy of bait; details: according to our experience
Experimental: as §1, §2

Linepithema humile = experiment: Insecticidal efficacy of bait; details: according to our experience
Experimental: as §1, §2

Blatta orientalis = experiment: Insecticidal efficacy of bait; details: according to our experience
Source text: as §3

Blattella germanica = experiment: Insecticidal efficacy of bait; details: according to our experience
Source text: as §3

Periplaneta americana = experiment: Insecticidal efficacy of bait; details: according to our experience
Source text: as §3

Aedes aegypti = experiment: Insecticidal efficacy of bait; details: according to our experience
Experimental: (§4) Mosquitoes: Bait is added at 10% in water used by mosquitoes for drinking, placed in ordinary breeding nets, 10×10×10 cm^3, ad libitum.
(§5) In the case of mosquito tests, the bait is given ad libitum to 50 specimens in 10 cm×10 cm×10 cm^3 cloth cages, using cotton wool impregnated with the baits mentioned above, but with a sugar mix content of only 10%, the rest being compensated by adding more water to the formula, so that it is liquid enough to be absorbed by the mosquitoes.

Aedes albopictus = experiment: Insecticidal efficacy of bait; details: according to our experience
Experimental: as §4, §5

Culex pipiens = experiment: Insecticidal efficacy of bait; details: according to our experience
Experimental: as §4, §5

Anopheles gambiae = experiment: Insecticidal efficacy of bait; details: according to our experience
Experimental: as §4

Culex quinquefasciatus = experiment: Insecticidal efficacy of bait; details: according to our experience
Experimental: as §4

Ceratitis capitata = experiment: Insecticidal efficacy of bait; details: according to our experience
Experimental: (§6) Flies: Bait is added at 10% in water used by the flies for drinking, placed in 10×10×10 cm^3 ordinary breeding nets, ad libitum.
(§7) Similarly, tests have been carried out with […] with house flies (Musca domestica) and with Mediterranean flies (Ceratitis capitata).

Musca domestica = experiment: Insecticidal efficacy of bait; details: according to our experience
Experimental: as §6, §7

Simuliidae ssp. = experiment: Insecticidal efficacy of bait; details: according to our experience
Bactrocera oleae = experiment: Insecticidal efficacy of bait; details: according to our experience
Bactrocera cucurbitae = experiment: Insecticidal efficacy of bait; details: according to our experience

N[C@@H](CO)C(=O)O [serine]
increase in palatability compared to the control (ants): 1.5-1.7 times
effect on palatability (in words) (Periplaneta america): increases palatability, but to a lesser extent than cycloserine
effect on palatability of baits (in words) (insects [1]): shown to increase the palatability of baits

N[C@@H]1CONC1=O [D-cycloserine]
comparison of activity of D and L isomers (insects [1]): we have not seen an activity of one isomer greater than the other
time to elimination of the insects (delayed mortality) (insects [2]): up to 7 days
difference in kill or duration between D-, L-cycloserine and mixtures (insects [2]): no significant difference in kill or duration

O=C([O-])c1c(Cl)c(Cl)c(Cl)c(Cl)c1-c1c2cc(Br)c(=O)c(Br)c-2oc2c(Br)c([O-])c(Br)cc12.[Na+].[Na+] [phloxine B]
effect on palatability of baits (in words) (insects [1]): shown to increase the palatability of baits

N[C@H]1CONC1=O [L-cycloserine]
comparison of activity of D and L isomers (insects [1]): we have not seen an activity of one isomer greater than the other
time to elimination of the insects (delayed mortality) (insects [2]): up to 7 days
difference in kill or duration between D-, L-cycloserine and mixtures (insects [2]): no significant difference in kill or duration

O=[N+]([O-])NC1=NCCN1Cc1ccc(Cl)nc1 [imidacloprid]
bait rejection (Lasius niger [3]): does not cause bait rejection

N[C@@H]1CON=C1O [cycloserine]
effect on palatability (in words) (Periplaneta america): more pronounced
comparison of activity of D and L isomers (insects [1]): activity we have observed to be the same
effect on palatability of baits (in words) (insects [1]): shown to increase the palatability of baits
time to elimination of the insects (delayed mortality) (insects [2]): up to 7 days
transfer of lethal effect to another cockroach (cockroach): lethal effect of cycloserine on one cockroach is transferred to another cockroach
efficacy as an insecticide (Lasius niger [4]): great efficacy
efficacy as an insecticide (Linepithema humile): great efficacy
efficacy as an insecticide (Blatta orientalis): great efficacy
efficacy as an insecticide (Blattella germanica): great efficacy
efficacy as an insecticide (Periplaneta americana): great efficacy
efficacy as an insecticide (Aedes aegypti): great efficacy
efficacy as an insecticide (Aedes albopictus): great efficacy
efficacy as an insecticide (Culex pipiens): great efficacy
efficacy as an insecticide (Anopheles gambiae): great efficacy
efficacy as an insecticide (Culex quinquefasciatus): great efficacy
efficacy as an insecticide (Ceratitis capitata): great efficacy
efficacy as an insecticide (Musca domestica): great efficacy
efficacy as an insecticide (Simuliidae ssp.): great efficacy
efficacy as an insecticide (Bactrocera oleae): great efficacy
efficacy as an insecticide (Bactrocera cucurbitae): great efficacy
